Measured values published in patent publication US11155517B2, “4-substituted phenylamine derivatives and their use to protect crops by fighting undesired phytopathogenic micoorganisms” (PI INDUSTRIES LTD., priority 2016, dated 2021).
Structures can show the parent of a compound that is named as a salt.

Columns and labels:
Type in all cases: cell-based
Pyricularia oryzae = experiment: microbe, parasite or virus in culture; settings: 168 h, read-out: % control compared to the untreated check (radial growth)
Rhizoctonia solani = Rhizoctonia solani (rice sheath blight/potato black scurf) in vitro test, radial growth on Potato Dextrose Agar; settings: 168 h, 300 ppm, seven days, 25° C., read-out: % control compared to the untreated check (radial growth)
Alternaria solani = Alternaria solani (early blight of tomato/potato) in vitro test, radial growth on Potato Dextrose Agar; settings: 168 h, 300 ppm, seven days, 25° C., read-out: % control compared to the untreated check (radial growth)
Botrytis cinerea = Botrytis cinerea (gray mold) in vitro test, radial growth on Potato Dextrose Agar; settings: 168 h, 300 ppm, seven days, 22° C., read-out: % (control) compared to the untreated check (radial growth)

SMILES	inhibition of growth at 300 ppm (Pyricularia oryzae)	inhibition of growth at 300 ppm (Rhizoctonia solani)	inhibition of growth at 300 ppm (Alternaria solani)	inhibition of growth at 300 ppm (Botrytis cinerea)
Cc1cc(N=CN2CCOCC2)c(Cl)cc1Cc1cccc(F)c1 [Compound 38, N-(2-chloro-4-(3-fluorobenzyl)-5-methylphenyl)-1-morpholinomethanimine]	> 75%			
CON(C)C=Nc1cc(C)c(Cc2ccccc2F)cc1C [Compound 61, N′-(4-(2-fluorobenzyl)-2,5-dimethylphenyl)-N-methoxy-N-methylformimidamide]	> 75%	> 80%	> 75%	
Cc1cc(N=CNC#N)c(C)cc1Cc1ccccc1Cl [Compound 65, N′-(4-(2-chlorobenzyl)-2,5-dimethylphenyl)-N-cyanoformimidamide]				> 80%
CCN(C)C=Nc1c(C)cc(C(F)(F)c2ccccc2)c(C)c1I [Compound 73, N′-(4-(difluoro(phenyl)methyl)-2-iodo-3,6-dimethylphenyl)-N-ethyl-N-methylformimidamide]	> 75%			
CCN(C)C=Nc1cc(C)c(Cc2cccc(F)c2Cl)cc1Cl [Compound 125, N′-(2-chloro-4-(2-chloro-3-fluorobenzyl)-5-methylphenyl)-N-ethyl-N-methylformimidamide]	> 75%		> 75%	
CCN(C)C=Nc1cc(C)c(Cc2cc(C(F)(F)F)cc(Cl)c2F)cc1Cl [Compound 126, N′-(2-chloro-4-(3-chloro-2-fluoro-5-(trifluoromethyl)benzyl)-5-methylphenyl)-N-ethyl-N-methylformimidamide]	> 75%		> 75%	
CCN(C)C=Nc1cc(Cl)c(Cc2ccc(C)cc2)cc1Cl [Compound 147, N′-(2,5-dichloro-4-(4-methylbenzyl)phenyl)-N-ethyl-N-methylformimidamide]		> 80%	> 75%	
CCN(C)C=Nc1cc(Cl)c(Cc2ccccc2Cl)cc1Cl [Compound 150, N′-(2,5-dichloro-4-(2-chlorobenzyl)phenyl)-N-ethyl-N-methylformimidamide]	> 75%		> 75%	
CCN(C)C=Nc1cc(C)c(C(C#N)c2ccc(C(F)(F)F)cc2)cc1Cl (stereo not shown) [Compound 187, N′-(2-chloro-4-(cyano(4-(trifluoromethyl)phenyl)methyl)-5-methylphenyl)-N-ethyl-N-methylformimidamide]				> 80%
CCN(C)C=Nc1cc(C)c(C(C#N)c2cccc(C(F)(F)F)c2)cc1Cl (stereo not shown) [Compound 188, N′-(2-chloro-4-(cyano(3-(trifluoromethyl)phenyl)methyl)-5-methylphenyl)-N-ethyl-N-methylformimidamide]	> 75%			> 80%
CCN(C)C=Nc1cc(C)c(C(C#N)c2ccc(F)c(Cl)c2)cc1Cl (stereo not shown) [Compound 190, N′-(2-chloro-4-((3-chloro-4-fluorophenyl)(cyano)methyl)-5-methylphenyl)-N-ethyl-N-methylformimidamide]	> 75%			> 80%
CCN(C)C=Nc1cc(C)c(C(C#N)c2cccc(F)c2)cc1Cl (stereo not shown) [Compound 194, N′-(2-chloro-4-(cyano(3-fluorophenyl)methyl)-5-methylphenyl)-N-ethyl-N-methylformimidamide]	> 75%			
CCN(C)C=Nc1cc(C)c(Cc2ccccn2)cc1C [Compound 202, N′-(2,5-dimethyl-4-(pyridin-2-ylmethyl)phenyl)-N-ethyl-N-methylformimidamide]	> 75%		> 75%	
COC=Nc1c(C)cc(Cc2ccc(Br)cc2)c(C)c1Br [Compound 217, methyl N-(2-bromo-4-(4-bromobenzyl)-3,6-dimethylphenyl)formimidate]				> 80%
CCN(C)C=Nc1cc(C)c(Cc2cccc(Cl)c2)cc1S(C)(=O)=O [Compound 218, N′-(4-(3-chlorobenzyl)-5-methyl-2-(methylsulfonyl)phenyl)-N-ethyl-N-methylformimidamide]			> 75%	
CCN(C)C=Nc1c(C)cc(Cc2ccccc2C)c(C)c1Br [Compound 219, N′-(2-bromo-3,6-dimethyl-4-(2-methylbenzyl)phenyl)-N-ethyl-N-methylformimidamide]	> 75%		> 75%	> 80%
CCN(C)C=Nc1cc(C(F)(F)F)c(Cc2ccccc2Cl)cc1F [Compound 226, N′-(4-(2-chlorobenzyl)-2-fluoro-5-(trifluoromethyl)phenyl)-N-ethyl-N-methylformimidamide]	> 75%	> 80%	> 75%	
CCN(C)C=Nc1cc(C(F)(F)F)c(Cc2ccccc2F)cc1F [Compound 227, N-ethyl-N′-(2-fluoro-4-(2-fluorobenzyl)-5-(trifluoromethyl)phenyl)-N-methylformimidamide]	> 75%	> 80%	> 75%	
CCN(C)C=Nc1cc(C(F)(F)F)c(Cc2cccc(C)c2)cc1F [Compound 231, N-ethyl-N′-(2-fluoro-4-(3-methylbenzyl)-5-(trifluoromethyl)phenyl)-N-methylformimidamide]	> 75%	> 80%	> 75%	
CCN(C)C=Nc1cc(C(F)(F)F)c(Cc2cccc(OC(F)(F)F)c2)cc1F [Compound 233, N-ethyl-N′-(2-fluoro-4-(3-(trifluoromethoxy)benzyl)-5-(trifluoromethyl)phenyl)-N-methylformimidamide]	> 75%		> 75%	> 80%
CCN(C)C=Nc1cc(C)c(Cc2ccccc2C)cc1S(C)(=O)=O [Compound 234, N-ethyl-N-methyl-N′-(5-methyl-4-(2-methylbenzyl)-2-(methylsulfonyl)phenyl)formimidamide]	> 75%		> 75%	> 80%
CCN(C)C=Nc1cc(C)c(Cc2ccc(C)cc2)cc1S(C)(=O)=O [Compound 235, N-ethyl-N-methyl-N′-(5-methyl-4-(4-methylbenzyl)-2-(methylsulfonyl)phenyl)formimidamide]				> 80%
CCN(C)C=Nc1cc(Cl)c(C(C(=O)OC)c2cccc(Cl)c2)cc1C (stereo not shown) [Compound 237, methyl 2-(2-chloro-4-(((ethyl(methyl)amino)methylene)amino)-5-methylphenyl)-2-(3-chlorophenyl)acetate]	> 75%		> 75%	
C=C(c1ccc(Br)cc1)c1cc(C)c(N=CN(C)CC)cc1Cl [Compound 238, N′-(4-(1-(4-bromophenyl)vinyl)-5-chloro-2-methylphenyl)-N-ethyl-N-methylformimidamide]	> 75%		> 75%	> 80%
CCN(C)C=Nc1cc(C)c(C(C#N)c2cccc(C(F)(F)F)c2)cc1Cl (stereo not shown) [Compound 272, N′-(2-chloro-4-(cyano(3-(trifluoromethyl)phenyl)methyl)-5-methylphenyl)-N-ethyl-N-methylformimidamide hydrochloride]			> 75%	
